{
  "source": "patent US20170327455A1",
  "about": "“Omefibrates for Treating Dyslipidemia and Cardiovascular Disease” (Jiva Pharma, Inc., priority 2014, published 2017)",
  "key": {"PPARα": {"molecular_target": "T1, PPARα (Homo sapiens, UniProt Q07869)", "T1 construct": "expressed in transfected cells", "T1 sequence (Q07869 239-466 limits assumed)": "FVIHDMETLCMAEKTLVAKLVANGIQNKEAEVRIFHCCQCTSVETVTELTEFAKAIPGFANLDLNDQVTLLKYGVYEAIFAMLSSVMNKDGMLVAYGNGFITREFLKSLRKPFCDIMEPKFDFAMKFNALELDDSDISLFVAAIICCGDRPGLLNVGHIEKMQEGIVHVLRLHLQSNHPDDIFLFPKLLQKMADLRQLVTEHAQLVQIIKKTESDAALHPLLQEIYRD", "experiment": "PPARα agonist assay: GAL4-PPAR ligand-binding domain luciferase reporter in live cells", "type": "cell-based", "conditions": "FIG. 1; for activation of PPARα transcriptional activity (normalized luciferase activity): GAL4-regulated luciferase reporter, live cells", "method": "The activity of JIVA-0018, JIVA-0019 and JIVA-0020 was determined in a PPARα-dependent transcription assay. This assay was carried out in live cells treated with these above compounds, and provides a direct measurement of a compound's ability to activate PPARα. This PPARα activity assay is a standard nuclear receptor ligand activity assay that utilizes the ligand-binding domain of the PPAR receptor fused to a heterologous GAL4 DNA binding domain. The transcriptional read-out is from a GAL4-regulated luciferase reporter. In this assay, compounds that activate the receptor cause an increase in luciferase activity measured in a luminometer."}, "PPARδ": {"molecular_target": "T2, PPARδ (Homo sapiens, UniProt Q03181)", "T2 construct": "expressed in transfected cells", "T2 sequence (Q03181 211-439 limits assumed)": "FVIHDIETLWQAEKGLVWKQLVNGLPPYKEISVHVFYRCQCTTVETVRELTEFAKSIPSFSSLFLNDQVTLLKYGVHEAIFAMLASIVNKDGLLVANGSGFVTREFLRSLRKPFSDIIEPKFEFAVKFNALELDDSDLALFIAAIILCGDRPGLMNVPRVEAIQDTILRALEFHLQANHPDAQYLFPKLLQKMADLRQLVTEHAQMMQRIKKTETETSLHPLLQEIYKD", "experiment": "PPARδ Agonist Assay (luciferase reporter)", "type": "cell-based", "conditions": "FIG. 2"}},
  "note": "pEC50: −log10 of the molar value. “Also recorded” adds a separate entry of the source.",
  "data": [
    {"molecule": "DHA Fibrate [JIVA-0020]", "values": [
      {"measurement": "activation of PPARα transcriptional activity (normalized luciferase activity)", "setting": "PPARα", "result": "neither the EPA-fibrate, JIVA-0018 nor the DHA-fibrate, JIVA-0020 stimulated PPARα activity"},
      {"measurement": "pEC50", "setting": "PPARα; estimated from the data, read-out: EC50 for activation of PPARα", "result": "< 4.70"}
    ]},
    {"molecule": "CC/C=C\\C/C=C\\C/C=C\\C/C=C\\C/C=C\\CCCCC(C)(C)C(=O)O", "note": "[JIVA-0018, EPA Fibrate or EPA-Fibric Acid]", "values": [
      {"measurement": "activity on PPARδ (normalized luciferase activity)", "setting": "PPARδ", "result": "at the base line"},
      {"measurement": "activation of PPARα transcriptional activity (normalized luciferase activity)", "setting": "PPARα", "result": "neither the EPA-fibrate, JIVA-0018 nor the DHA-fibrate, JIVA-0020 stimulated PPARα activity; also recorded: at the base line"}
    ]},
    {"molecule": "CC/C=C\\C/C=C\\C/C=C\\CCCCCCCCC(C)(C)C(=O)O", "note": "[JIVA-0019, ALA Fibrate]", "values": [
      {"measurement": "activity on PPARδ (normalized luciferase activity)", "setting": "PPARδ", "result": "at the base line"},
      {"measurement": "activation of PPARα transcriptional activity (normalized luciferase activity)", "setting": "PPARα", "result": "strongly activated PPARα; also recorded: potent and selective activator of PPARα"}
    ]}
  ]
}
